Measurements published in PubChem BioAssay AID2060907 (Molecular Pharmacology Branch, DTP, NCI, 2025).
pIC50: −log10 of the molar value.

System: 388556-164-R-J1-PDC complex spheroid viability
Assay: Anticancer human tumor 388556-164-R-J1-PDC patient-derived colon adenocarcinoma cell line growth inhibition [RAS]
Conditions: for pIC50: curve of first compound; for viability, T/C: stronger effect = lower value; active = viability on the fitted dose curve at most 10% of control; inactive = the rest
Method in brief: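 Agents were tested in combination matrices in half-log decrements from a top concentration at or near clinical Cmax (10 microM if undetermined). Targets were multi-cell spheroids of tumour lines plus HUVEC and MSC stromal cells.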

[1] = second compound 0.0316 µM, first compound 0.0316 µM
[2] = second compound 0.0316 µM, first compound 0.1 µM
[3] = second compound 0.0316 µM, first compound 0.316 µM
[4] = second compound 0.0316 µM, first compound 1 µM
[5] = second compound 0.1 µM, first compound 0.0316 µM
[6] = second compound 0.1 µM, first compound 0.1 µM
[7] = second compound 0.1 µM, first compound 0.316 µM
[8] = second compound 0.1 µM, first compound 1 µM
[9] = second compound 0.316 µM, first compound 0.0316 µM
[10] = second compound 0.316 µM, first compound 0.1 µM
[11] = second compound 0.316 µM, first compound 0.316 µM
[12] = second compound 0.316 µM, first compound 1 µM
[13] = second compound 1 µM, first compound 0.0316 µM
[14] = second compound 1 µM, first compound 0.1 µM
[15] = second compound 1 µM, first compound 0.316 µM
[16] = second compound 1 µM, first compound 1 µM
[17] = second compound 3.16 µM, first compound 0.0316 µM
[18] = second compound 3.16 µM, first compound 0.1 µM
[19] = second compound 3.16 µM, first compound 0.316 µM
[20] = second compound 3.16 µM, first compound 1 µM
[21] = second compound 10 µM, first compound 0.0316 µM
[22] = second compound 10 µM, first compound 0.1 µM
[23] = second compound 10 µM, first compound 0.316 µM
[24] = second compound 10 µM, first compound 1 µM
[25] = second compound 0.0316 µM, first compound 0.000949 µM
[26] = second compound 0.0316 µM, first compound 0.003 µM
[27] = second compound 0.0316 µM, first compound 0.00949 µM
[28] = second compound 0.0316 µM, first compound 0.03 µM
[29] = second compound 0.0316 µM, first compound 0.0949 µM
[30] = second compound 0.0316 µM, first compound 0.3 µM
[31] = second compound 0.1 µM, first compound 0.000949 µM
[32] = second compound 0.1 µM, first compound 0.003 µM
[33] = second compound 0.1 µM, first compound 0.00949 µM
[34] = second compound 0.1 µM, first compound 0.03 µM
[35] = second compound 0.1 µM, first compound 0.0949 µM
[36] = second compound 0.1 µM, first compound 0.3 µM
[37] = second compound 0.316 µM, first compound 0.000949 µM
[38] = second compound 0.316 µM, first compound 0.003 µM
[39] = second compound 0.316 µM, first compound 0.00949 µM
[40] = second compound 0.316 µM, first compound 0.03 µM
[41] = second compound 0.316 µM, first compound 0.0949 µM
[42] = second compound 0.316 µM, first compound 0.3 µM
[43] = second compound 1 µM, first compound 0.000949 µM
[44] = second compound 1 µM, first compound 0.003 µM
[45] = second compound 1 µM, first compound 0.00949 µM
[46] = second compound 1 µM, first compound 0.03 µM
[47] = second compound 1 µM, first compound 0.0949 µM
[48] = second compound 1 µM, first compound 0.3 µM
[49] = second compound 3.16 µM, first compound 0.000949 µM
[50] = second compound 3.16 µM, first compound 0.003 µM
[51] = second compound 3.16 µM, first compound 0.00949 µM
[52] = second compound 3.16 µM, first compound 0.03 µM
[53] = second compound 3.16 µM, first compound 0.0949 µM
[54] = second compound 3.16 µM, first compound 0.3 µM
[55] = second compound 10 µM, first compound 0.000949 µM
[56] = second compound 10 µM, first compound 0.003 µM
[57] = second compound 10 µM, first compound 0.00949 µM
[58] = second compound 10 µM, first compound 0.03 µM
[59] = second compound 10 µM, first compound 0.0949 µM
[60] = second compound 10 µM, first compound 0.3 µM
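Also: spheroids exposed to compound for 7 days before readout.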
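For viability, T/C in this document: 100% = DMSO vehicle control luminescence.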

C=CC(=O)N1CCN(c2nc(OCC3CCCN3C)nc3c(F)c(-c4nc(N)cc(C)c4C(F)(F)F)c(Cl)cc23)C(C)C1 (stereo not drawn) + C#Cc1c(F)ccc2cc(O)cc(-c3ncc4c(N5CC6CCC(C5)N6)nc(OCC56CCCN5CC(F)C6)nc4c3F)c12
< 6.00: pIC50 (second compound 0.0316 µM) | pIC50 (second compound 0.1 µM) | pIC50 (second compound 0.316 µM) | pIC50 (second compound 1 µM) | pIC50 (second compound 3.16 µM) | pIC50 (second compound 10 µM)
inactive: viability, T/C (second compound 0.0316 µM, first compound 0.00316 µM) 102% | viability, T/C (second compound 0.0316 µM, first compound 0.01 µM) 117% | viability, T/C [1] 110% | viability, T/C [2] 107% | viability, T/C [3] 110% | viability, T/C [4] 111% | viability, T/C (second compound 0.1 µM, first compound 0.00316 µM) 108% | viability, T/C (second compound 0.1 µM, first compound 0.01 µM) 109% | viability, T/C [5] 105% | viability, T/C [6] 109% | viability, T/C [7] 112% | viability, T/C [8] 102% | viability, T/C (second compound 0.316 µM, first compound 0.00316 µM) 99.4% | viability, T/C (second compound 0.316 µM, first compound 0.01 µM) 94.5% | viability, T/C [9] 97.4% | viability, T/C [10] 102% | viability, T/C [11] 111% | viability, T/C [12] 96.2% | viability, T/C (second compound 1 µM, first compound 0.00316 µM) 95.3% | viability, T/C (second compound 1 µM, first compound 0.01 µM) 93.1% | viability, T/C [13] 75.5% | viability, T/C [14] 89.2% | viability, T/C [15] 107% | viability, T/C [16] 86.5% | viability, T/C (second compound 3.16 µM, first compound 0.00316 µM) 84.4% | viability, T/C (second compound 3.16 µM, first compound 0.01 µM) 80.9% | viability, T/C [17] 85.3% | viability, T/C [18] 92.1% | viability, T/C [19] 99.6% | viability, T/C [20] 80% | viability, T/C (second compound 10 µM, first compound 0.00316 µM) 72.3% | viability, T/C (second compound 10 µM, first compound 0.01 µM) 58.4% | viability, T/C [21] 68.7% | viability, T/C [22] 68.8% | viability, T/C [23] 76.2% | viability, T/C [24] 55.8%

CC(=O)OC12COC1CC(O)C1(C)C(=O)C(O)C3=C(C)C(OC(=O)C(O)C(NC(=O)OC(C)(C)C)c4ccccc4)CC(O)(C(OC(=O)c4ccccc4)C21)C3(C)C (stereo not drawn) + C#Cc1c(F)ccc2cc(O)cc(-c3ncc4c(N5CC6CCC(C5)N6)nc(OCC56CCCN5CC(F)C6)nc4c3F)c12
6.09: pIC50 (second compound 10 µM)
5.21: pIC50 (second compound 3.16 µM)
< 5.00: pIC50 (second compound 0.0316 µM) | pIC50 (second compound 0.1 µM) | pIC50 (second compound 0.316 µM) | pIC50 (second compound 1 µM)
inactive: viability, T/C [1] 80.7% | viability, T/C [2] 80.8% | viability, T/C [3] 76.1% | viability, T/C [4] 76.1% | viability, T/C (second compound 0.0316 µM, first compound 3.16 µM) 74.5% | viability, T/C (second compound 0.0316 µM, first compound 10 µM) 75.1% | viability, T/C [5] 87.6% | viability, T/C [6] 80.8% | viability, T/C [7] 71.5% | viability, T/C [8] 75.2% | viability, T/C (second compound 0.1 µM, first compound 3.16 µM) 78.9% | viability, T/C (second compound 0.1 µM, first compound 10 µM) 75.4% | viability, T/C [9] 82.5% | viability, T/C [10] 73.7% | viability, T/C [11] 67.4% | viability, T/C [12] 69.7% | viability, T/C (second compound 0.316 µM, first compound 3.16 µM) 77.1% | viability, T/C (second compound 0.316 µM, first compound 10 µM) 59% | viability, T/C [13] 78.5% | viability, T/C [14] 74.4% | viability, T/C [15] 59.6% | viability, T/C [16] 67.4% | viability, T/C (second compound 1 µM, first compound 3.16 µM) 69% | viability, T/C (second compound 1 µM, first compound 10 µM) 49.8% | viability, T/C [17] 72.8% | viability, T/C [18] 58.2% | viability, T/C [19] 59% | viability, T/C [20] 65.8% | viability, T/C (second compound 3.16 µM, first compound 3.16 µM) 63.3% | viability, T/C (second compound 3.16 µM, first compound 10 µM) 40.2% | viability, T/C [21] 56.6% | viability, T/C [22] 48.2% | viability, T/C [23] 52.4% | viability, T/C [24] 54.7% | viability, T/C (second compound 10 µM, first compound 3.16 µM) 40.1% | viability, T/C (second compound 10 µM, first compound 10 µM) 35.5%

CC1(C)CCC(Nc2ncc(C(F)(F)F)c(-c3c[nH]c4c(P(C)(C)=O)c(C#N)ccc34)n2)CN1 (stereo not drawn) + C#Cc1c(F)ccc2cc(O)cc(-c3ncc4c(N5CC6CCC(C5)N6)nc(OCC56CCCN5CC(F)C6)nc4c3F)c12
inactive: viability, T/C [25] 111% | viability, T/C [26] 110% | viability, T/C [27] 112% | viability, T/C [28] 94.9% | viability, T/C [29] 118% | viability, T/C [30] 97.3% | viability, T/C [31] 110% | viability, T/C [32] 112% | viability, T/C [33] 110% | viability, T/C [34] 101% | viability, T/C [35] 116% | viability, T/C [36] 92.1% | viability, T/C [37] 100% | viability, T/C [38] 100% | viability, T/C [39] 91.1% | viability, T/C [40] 114% | viability, T/C [41] 115% | viability, T/C [42] 92.9% | viability, T/C [43] 97.1% | viability, T/C [44] 92% | viability, T/C [45] 80.7% | viability, T/C [46] 96.7% | viability, T/C [47] 100% | viability, T/C [48] 84.2% | viability, T/C [49] 83% | viability, T/C [50] 78.2% | viability, T/C [51] 99.8% | viability, T/C [52] 99.5% | viability, T/C [53] 96.3% | viability, T/C [54] 77.8% | viability, T/C [55] 70.7% | viability, T/C [56] 65.1% | viability, T/C [57] 76.6% | viability, T/C [58] 81% | viability, T/C [59] 62.7% | viability, T/C [60] 63.4%
< 6.52: pIC50 (second compound 0.0316 µM) | pIC50 (second compound 0.1 µM) | pIC50 (second compound 0.316 µM) | pIC50 (second compound 1 µM) | pIC50 (second compound 3.16 µM) | pIC50 (second compound 10 µM)

CCc1c2c(nc3ccc(O)cc13)-c1cc3c(c(=O)n1C2)COC(=O)[C@]3(O)CC + C#Cc1c(F)ccc2cc(O)cc(-c3ncc4c(N5CC6CCC(C5)N6)nc(OCC56CCCN5CC(F)C6)nc4c3F)c12
7.03: pIC50 (second compound 0.0316 µM)
6.98: pIC50 (second compound 0.1 µM)
7.07: pIC50 (second compound 3.16 µM)
7.11: pIC50 (second compound 1 µM)
7.37: pIC50 (second compound 10 µM)
inactive: viability, T/C [25] 94.4% | viability, T/C [26] 96.1% | viability, T/C [27] 83.6% | viability, T/C [28] 69% | viability, T/C [29] 50.4% | viability, T/C [30] 36.2% | viability, T/C [31] 108% | viability, T/C [32] 82.4% | viability, T/C [33] 84.4% | viability, T/C [34] 70.3% | viability, T/C [35] 52.6% | viability, T/C [36] 31.6% | viability, T/C [37] 93.6% | viability, T/C [38] 94.8% | viability, T/C [39] 71.4% | viability, T/C [40] 67.2% | viability, T/C [41] 55.8% | viability, T/C [42] 25.5% | viability, T/C [43] 92.1% | viability, T/C [44] 89% | viability, T/C [45] 60.5% | viability, T/C [46] 71.4% | viability, T/C [47] 50.5% | viability, T/C [48] 23.3% | viability, T/C [49] 80.2% | viability, T/C [50] 72.8% | viability, T/C [51] 66.2% | viability, T/C [52] 60.1% | viability, T/C [53] 53.8% | viability, T/C [54] 20.8% | viability, T/C [55] 72.4% | viability, T/C [56] 61.4% | viability, T/C [57] 63% | viability, T/C [58] 55.1% | viability, T/C [59] 41.1% | viability, T/C [60] 20.6%
7.01: pIC50 (second compound 0.316 µM)
